pIC50: −log10 of the molar value.
Experiments:
Type in all cases: cell-based
MDA-A1 cells = experiment: Inhibition of the proliferation of MDA-A1 cells by compounds of formula IA (14C-thymidine pulse at 96 h); conditions: MDA-A1, 3 days culture, 14C-thymidine incorporation at 96 h
Protocol: (§1) Evaluation of the Inhibition of the Proliferation of the MDA-MB-231, MDA-A1 and HCT116 Cell Lines by the Compounds of Formula IA with ZbRb=−OMe and Y═Y′=−OMe
(§2) The MDA-MB-231, MDA-A1 or HCT116 cells in their exponential growth phase are trypsinized and resuspended in their respective culture medium (DMEM/F12 Gibco #21331, 10% FCS Gibco #10500-056, […] Gibco #25030 for the MDA cells; DMEM Gibco #11960, 10% FCS Gibco #10500-056, 2 mM glutamine Gibco #25030 for the HCT116 cells). The cell suspension is seeded in Cytostar 96-well culture plates (GE Healthcare Europe, #RPNQ0163) in the complete culture medium containing serum at a density of 5000 cells/well (MDA-MB-231, MDA-A1, HCT116). After incubation for 4 hours, successive dilutions of the tomaymycin dimers are added to the wells in triplicate for each concentration. The cells are cultured for 3 days at 37° C. under an atmosphere containing 5% CO2 in the presence of the cytotoxic agents. On the 4th day, 10 μl of a ^14C-thymidine solution (0.1 μCi/well, Perkin Elmer #NEC56825000) are added to each well. The incorporation of ^14C-thymidine is measured 96 hours after the start of the experiment using a MicroBeta radioactivity counter (Perkin Elmer). The data are expressed in the form of a % of survival by determining the ratio between the count obtained with the cells treated with the cytotoxic agent and the count obtained with the cells of the control wells (treated with the culture medium alone).

HCT116 cells = experiment: Inhibition of the proliferation of HCT116 cells by compounds of formula IA (14C-thymidine pulse at 96 h); conditions: Homo sapiens, HCT-116; HCT116, 3 days culture, 14C-thymidine incorporation at 96 h
Protocol: as §1, §2

MDA-MB-231 cells = experiment: Inhibition of the proliferation of MDA-MB-231 cells by compounds of formula IA (14C-thymidine pulse at 96 h); conditions: Homo sapiens; MDA-MB-231, 3 days culture, 14C-thymidine incorporation at 96 h; read-out: Inhibition of the proliferation (14C-thymidine pulse at 96 h) IC50 MDA-MB231
Protocol: as §1, §2

Row | SMILES | pIC50 (MDA-A1 cells) | pIC50 (HCT116 cells) | pIC50 (MDA-MB-231 cells)
1 | C/C=C1\C[C@H]2C=Nc3cc(OCc4cc(OCCN(C)CC(C)(C)SCC(=O)NCCOCCOCCOCCOCCC(=O)OC)cc(COc5cc6c(cc5OC)C(=O)N5C/C(=C/C)C[C@H]5C=N6)n4)c(OC)cc3C(=O)N2C1 | 8.70 | 10.52 | 11.05
2 | C/C=C1\C[C@H]2C=Nc3cc(OCc4cc(OCCN(C)CC(C)(C)SCC(=O)N(C)CCOCCOCCOCCOCCC(=O)OC)cc(COc5cc6c(cc5OC)C(=O)N5C/C(=C/C)C[C@H]5C=N6)n4)c(OC)cc3C(=O)N2C1 | 8.65 | 9.92 | 10.15
3 | C/C=C1\C[C@H]2C=Nc3cc(OCc4cc(COc5cc6c(cc5OC)C(=O)N5C/C(=C/C)C[C@H]5C=N6)cc(C(C)(C)SCC(=O)NCCOCCOCCOCCOCCC(=O)OC)c4)c(OC)cc3C(=O)N2C1 | < 8.00 | 9.90 | 10.08
4 | C/C=C1\C[C@H]2C=Nc3cc(OCc4cc(OCCN5CCN(C(=O)CCC(C)(C)SCC(=O)NCCOCCOCCOCCOC(=O)OC)CC5)cc(COc5cc6c(cc5OC)C(=O)N5C/C(=C/C)C[C@H]5C=N6)n4)c(OC)cc3C(=O)N2C1 | < 8.00 | 8.90 | 9.35
